Among the data in PubChem BioAssay (NCI) are TGI and GI50 values, retold here.

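A five-concentration, 48-hour dose response in 96-well plates underlies each endpoint, interpolated linearly between surrounding concentrations. Here, GI50 denotes the concentration required for 50% inhibition of growth. TGI is the concentration that stops growth completely.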

Some test systems named below: BT-549 breast; NCI-H226 lung; OVCAR-5 ovarian; SK-MEL-5 melanoma; SN12C renal; SW-620 colon; UACC-62 melanoma; OVCAR-4 ovarian.
Assay in all cases: NCI-60 cell line screen, 48 h

With `O=C(O)C(/C=C/c1ccccc1)c1ccccc1` (configuration not stated), the TGI in the test with BT-549 breast, in the test with NCI-H226 lung, in the test on OVCAR-5 ovarian, in the test on SK-MEL-5 melanoma, in the test on SN12C renal and in the test with SW-620 colon was greater than 100 µM each time. The same molecule gave a TGI in the test on UACC-62 melanoma greater than 100 µM.

For the molecule `Cc1cc2c(cc1C)N(C(=O)CCl)CC(=O)N2`, the GI50 with BT-549 breast is 2.64 µM; in the test with OVCAR-4 ovarian, 1.59 µM; with OVCAR-5 ovarian, 2.53 µM; in the test with SK-MEL-5 melanoma it was 3.48 µM; with SN12C renal it was 3.44 µM; in the test with SW-620 colon, 2.19 µM. The GI50 in the test on UACC-62 melanoma is 3.54 µM. Also, the TGI with BT-549 breast came to 11.3 µM; in the test on OVCAR-4 ovarian it was 3.05 µM; in the test with OVCAR-5 ovarian it was 5.33 µM; in the test on SK-MEL-5 melanoma, 13.6 µM; in the test on SN12C renal it was 12 µM; with SW-620 colon it was 5.05 µM. The molecule further yielded a TGI in the test on UACC-62 melanoma of 12.7 µM.

Turning to `COC(=O)C1(C)CCC(c2ccc(C)cc2)=C(CC(=O)O)C1` (configuration not stated), the TGI with BT-549 breast, in the test with OVCAR-4 ovarian, in the test with OVCAR-5 ovarian, with SK-MEL-5 melanoma, in the test on SN12C renal and in the test with SW-620 colon was greater than 100 µM each time. In addition, the TGI with UACC-62 melanoma was greater than 100 µM.

Consider `C[C@H]1[C@H](C)CC[C@]2(CO)CC[C@]3(C)C(=CC[C@@H]4[C@@]5(C)CCCNC(C)(C)[C@@H]5CC[C@]43C)[C@H]12`, for which the GI50 in the test on OVCAR-5 ovarian was 1.69 µM; in the test on SK-MEL-5 melanoma, 1.7 µM; in the test with SN12C renal, 1.64 µM; with SW-620 colon, 1.79 µM; in the test on UACC-62 melanoma, 1.85 µM. The TGI in the test on OVCAR-5 ovarian amounted to 3.18 µM; with SK-MEL-5 melanoma, 3.09 µM; with SN12C renal it was 3.11 µM; with SW-620 colon, 3.54 µM; in the test on UACC-62 melanoma, 3.35 µM.

For `COc1cnc2c(c1)C(=O)c1c-2n(CCCn2ccnc2)c(=O)c2cc(F)ccc12`, the GI50 in the test on BT-549 breast is 0.0688 µM; with NCI-H226 lung, 0.0251 µM; with OVCAR-4 ovarian it was 0.118 µM; in the test on OVCAR-5 ovarian, 0.119 µM; in the test on SK-MEL-5 melanoma, 0.0169 µM; in the test with SN12C renal it was less than 0.01 µM. Further, the GI50 in the test with SW-620 colon was 0.0221 µM. The TGI in the test with BT-549 breast is 2.86 µM; with NCI-H226 lung it was 0.213 µM; with OVCAR-4 ovarian, 1.63 µM; with OVCAR-5 ovarian it was 0.789 µM; in the test on SK-MEL-5 melanoma, 0.0717 µM; in the test with SN12C renal it was greater than 100 µM. This molecule returned a TGI with SW-620 colon of 1.01 µM.

In the case of `CN(CCCn1c2c(c3ccccc3c1=O)C(=O)c1ccccc1-2)CCCn1c2c(c3ccccc3c1=O)C(=O)c1ccccc1-2`, the GI50 is 22 µM with BT-549 breast; 0.99 µM in the test with NCI-H226 lung; 2.26 µM in the test on OVCAR-4 ovarian; 1.66 µM in the test with OVCAR-5 ovarian; 6.57 µM in the test on SK-MEL-5 melanoma; 0.188 µM in the test with SW-620 colon. Besides, the GI50 with UACC-62 melanoma was 3.08 µM. In addition, the TGI is 83.1 µM in the test with BT-549 breast; greater than 36.9 µM in the test on NCI-H226 lung; greater than 100 µM in the test with OVCAR-4 ovarian; 3.59 µM in the test on OVCAR-5 ovarian; greater than 100 µM in the test with SK-MEL-5 melanoma; greater than 100 µM with SW-620 colon. The TGI in the test with UACC-62 melanoma was determined as 45.3 µM.

Consider `COc1cc2c(cc1C)NC(=O)/C2=C/c1ccccn1`, for which the GI50 in the test with NCI-H226 lung is 1.54 µM; in the test on OVCAR-4 ovarian it was 8.02 µM; in the test with OVCAR-5 ovarian, 3.46 µM; in the test on SK-MEL-5 melanoma it was 4.49 µM; with SN12C renal, 4.01 µM; with SW-620 colon it was 6.91 µM. Besides, in the test with UACC-62 melanoma, the GI50 was 2.85 µM. Moreover, the TGI in the test with NCI-H226 lung was 4.86 µM; with OVCAR-4 ovarian it was greater than 100 µM; in the test on OVCAR-5 ovarian it was 43.9 µM; in the test with SK-MEL-5 melanoma, 27.3 µM; in the test with SN12C renal, 18.4 µM; with SW-620 colon it was greater than 100 µM. This molecule came in with a TGI in the test with UACC-62 melanoma of 13.9 µM.

For the molecule `COc1cc([C@@H]2OC[C@@H]3C(c4cc(OC)c5c(c4)OCO5)OC[C@@H]32)cc(OC)c1OC` (some centres not stated), the TGI in the test on BT-549 breast, in the test with NCI-H226 lung, in the test on OVCAR-4 ovarian, in the test on OVCAR-5 ovarian, with SK-MEL-5 melanoma and in the test with SW-620 colon was greater than 100 µM in each case. In the test on UACC-62 melanoma, this molecule gave a TGI greater than 100 µM.

Consider `COc1ccc(C(=O)OC2C(OC3C(O)COC(O[C@H]4C[C@H]5[C@@H]6CC=C7C[C@@H](O)CC[C@]7(C)[C@H]6CC[C@]5(C)[C@H]4[C@H](C)C(=O)CCC(C)C)C3OC(N)=O)OCC(O)C2O)cc1` (some centres not stated), for which the GI50 in the test with BT-549 breast is less than 0.003 µM; in the test on OVCAR-4 ovarian, 0.475 µM; in the test with OVCAR-5 ovarian it was 0.555 µM; with SK-MEL-5 melanoma it was 0.114 µM; in the test on SN12C renal, 2.61 µM; in the test with SW-620 colon it was 0.0183 µM. The GI50 with UACC-62 melanoma is 0.00978 µM. For the same molecule, the TGI in the test with BT-549 breast turned out to be 3.71 µM; with OVCAR-4 ovarian, 5.26 µM; in the test on OVCAR-5 ovarian, 6.48 µM; in the test with SK-MEL-5 melanoma, 0.615 µM; in the test on SN12C renal it was 7.04 µM; in the test with SW-620 colon it was 0.429 µM. This molecule had a TGI in the test on UACC-62 melanoma of 0.04 µM.

Regarding `COc1ccc2cc(C(=O)/C=C/c3ccc(Cl)cc3Cl)ccc2c1`, the GI50 in the test with BT-549 breast is 0.963 µM; in the test with OVCAR-5 ovarian, 48.4 µM; in the test with SK-MEL-5 melanoma, 12.1 µM; in the test with SN12C renal it was 25.9 µM; with SW-620 colon it was 7.83 µM; in the test with UACC-62 melanoma it was 12 µM. For the same molecule, the TGI with BT-549 breast is 4.6 µM; with OVCAR-5 ovarian it was greater than 100 µM; with SK-MEL-5 melanoma it was 29.9 µM; in the test with SN12C renal, 67.9 µM; in the test with SW-620 colon, 25.5 µM; in the test with UACC-62 melanoma, 86.5 µM.

As to `CCC(C)(CC(C)(C)C(=O)NCC(=O)NC(Cc1ccccc1)C(=O)NC(Cc1ccccc1)C(=O)NCC(=O)NC1CC(OC2CC(O)(C(=O)CO)Cc3c(O)c4c(c(O)c32)C(=O)c2c(OC)cccc2C4=O)OC(C)C1O)C(=O)NCC(C)O` (configuration not stated), the GI50 in the test on NCI-H226 lung is 41.4 µg/mL; in the test with OVCAR-4 ovarian, greater than 150 µg/mL; with OVCAR-5 ovarian, greater than 150 µg/mL; with SK-MEL-5 melanoma it was 28.8 µg/mL; in the test on SN12C renal it was 81.2 µg/mL; in the test on SW-620 colon, 131 µg/mL. The GI50 with UACC-62 melanoma was 75 µg/mL. Also, the TGI in the test on NCI-H226 lung was greater than 150 µg/mL; in the test on OVCAR-4 ovarian, greater than 150 µg/mL; in the test with OVCAR-5 ovarian, greater than 150 µg/mL; in the test with SK-MEL-5 melanoma, 148 µg/mL; in the test on SN12C renal, greater than 150 µg/mL; in the test with SW-620 colon it was greater than 150 µg/mL. Moreover, the TGI in the test on UACC-62 melanoma was greater than 150 µg/mL.
